Molecules are shown by their SMILES.

Format in all cases: in vivo
The subject of experiment [1] is Eurasian watermilfoil (EWM). The experiment is described as follows: Root and shoot dry weights of Eurasian watermilfoil after treatment with triclopyr, 2,4-d, diquat alone and in combination, harvest at 32 d (Example 3). The settings on record: single herbicide at 50 ppb, vs untreated controls. The text has this:
Apical sections (12 to 15 cm in length) of Eurasian watermilfoil (EWM) were planted into small pots (13.5 cm length×3.75 cm diameter) containing Wallace Farm® (topsoil amended with 14-14-14 slow release Osmocote® fertilizer (˜2.5 g Osmocote/kg soil). Approximately 5 to 7 cm of the apical section extended above the sediment at planting, and a sand cap was placed over the potting soil (˜2 cm deep). Plants were then transferred to a 12 L acrylic tanks filled with well water. Plants were allowed to grow to two-thirds the height of tanks (approximately 7 d) before the following treatment was initiated in triple replicate: 1) Untreated controls, 2) triclopyr 50 ppb, 3) 2,4-d 50 ppb, 4) diquat 50 ppb, 5) diquat 50 ppb+triclopyr 50 ppb, 6) diquat 50 ppb+2,4-d 50 ppb. Plants were harvested at 32 d. At harvest, plants were rinsed free of algae, roots and shoots were separated, and placed in paper sacks in a drying oven for 4 d at 70° C. temperature, and dry weights were determined (FIG. 3.1).

Experiment [2] deals with Eurasian watermilfoil (EWM). The experiment can be described thus: GR50 and Isobole analysis of triclopyr and 2,4-d alone and in combination, above ground biomass 33 days after treatment (Example 4). As to conditions: total herbicide concentration, regression of 30-120 ppb treatments, n=3. The source says: Eurasian watermilfoil (EWM) was collected from ponds in Seymour, Ind. Single apical meristems were planted into small pots (13.5 cm length×3.75 cm diameter) containing Wallace Farm® (topsoil amended with 14-14-14 slow release Osmocote® fertilizer (˜2.5 g Osmocote/kg soil). Approximately 5 to 7 cm of the apical section extended above the sediment at planting, and a sand cap was placed over the potting soil (˜2 cm deep). Plants were then transferred to a 12 L acrylic tanks filled with well water. Tanks were maintained in a growth room with 14:10 h photoperiod at 26° C. Plants were allowed to establish growth for 26 days before they were treated.
Pretreatment above ground biomass was harvested the day of the treatment and dry weights were determined. Treatments were replicated three times in a completely randomized design. […]
All above ground biomass was harvested 33 days after treatment. Biomass was dried to constant moisture at 70° C. for 3 d, and dry weights were determined. Data were subjected to regression analysis using Sigma Plot software, and a GR50 was determined (concentration causing a 50% reduction in dry weight) for each treatment. […]

The test system of experiment [3] is Eurasian watermilfoil (EWM). The experiment can be described thus: Root and shoot dry weights of Eurasian watermilfoil after 40 d exposure to triclopyr and fluridone, 12 L tanks (Example 2). The settings on record: triclopyr 75 ppb alone. The source says: Apical sections (12 to 15 cm in length) of Eurasian watennilfoil (EWM) were planted into small pots (13.5 cm length×3.75 cm diameter) containing Wallace Farm® topsoil amended with 14-14-14 slow release Osmocote® fertilizer (˜2.5 g Osmocote/kg soil). Approximately 5 to 7 cm of the apical section extended above the sediment at planting, and a sand cap was placed over the potting soil (˜2 cm deep). Plants were then transferred to a 12 L acrylic tanks filled with well water. Plants were allowed to grow for 7 d before the following treatments were initiated in triple replicate: 1) fluridone at 10 ppb, 2) triclopyr at 75 ppb, 3) fluridone (10 ppb) plus triclopyr (75 ppb), 4) untreated controls. Plants were harvested at 40 d. At harvest, plants were rinsed free of algae, roots and shoots were separated, and placed in paper sacks in a drying oven for 4 d at 70° C. temperature, and dry weights were determined (FIG. 2.1).

On to `O=C(O)COc1ccc(Cl)cc1Cl` [2,4-d, (2,4-dichlorophenoxy) acetic acid], for which, in experiment [1], the “reduction in root biomass” value came to 66%. The “GR50 (concentration causing a 50% reduction in dry weight)” value in experiment [2] is reported as 162.6 ppb.
For the compound `O=C(O)COc1nc(Cl)c(Cl)cc1Cl` [triclopyr, 3,5,6-trichloro-2-pyridyloxyacetic acid], the “reduction in root biomass” value in experiment [1] turned out to be 90%. Further, the “GR50 (concentration causing a 50% reduction in dry weight)” value in experiment [2] is recorded as 63.0 ppb. In addition, in experiment [3] (root dry weight), the “reduction of below ground biomass” value came to 74%. Further, the “reduction of above ground biomass” value in experiment [3] (shoot dry weight) worked out at 96%.
Regarding `c1cc[n+]2c(c1)-c1cccc[n+]1CC2` [diquat, 1,1′-ethylene 2,2′-dipyridylium dibromide], in experiment [1], the “reduction in root biomass” value stood at 86%.

For the origin of these results see patent publication US20090325803A1, “CONTROL OF AQUATIC WEEDS USING SELECTED HERBICIDAL COMBINATIONS WITH A SYNTHETIC AUXIN” (priority 2008, published 2009).
